Values joined by “and” are separate entries in the source; they are usually repeats but may differ in a detail not shown here. Identical values can stand only once.
Tests used:
CD-1 female mice [1] = test: mouse tail-flick test (antinociception, %MPE); format: in vivo; details: for antinociception (%MPE): at 30 min
Source text: Its antinociception (analgesia) in vivo had been investigated using the mouse tail flick test. The mouse tail-flick test is a well-known experimental model to verify the analgesic activity of potential moderate and severe pain relievers including muscarinic agonists (Chau, T. T: Analgesic Testing in Animal Models. Pharmacological Methods in the Control of Inflammation. 195-212. 1989, Alan R. Liss. Inc.). […] Other possible muscarinic agonist activities, such as tremor, sedation, salivation, and hypothermia were observed simultaneously.
(§1) Experiments were carried out using a commercially available tail-flick analgesia meter (model TF-6 analgesia meter, Emdie Instrument Company, Maidens, Va., USA). […] A 10-second cutoff time was used as the maximum latency to avoid tissue damage.
(§2) Control animals received the corresponding vehicle(s) by the same route of administration.
The percentage of maximum possible effect (%MPE) was calculated as follows:
%MPE=[(postdrug latency−predrug latency)÷(cutoff time−predrug latency)]×100%.
(§3) All results were expressed as mean±SEM. […] This comparison was carried out at the peak of antinociception (30 minutes). Student's T test (one tailed analysis)(Microsoft Excel 97, Microsoft Corporation, Redmond, Wash., USA) was used to analyse the statistical significance between the two groups. The value of p<0.05 was considered as statistically significant.
as §1, §2
as §3, with “minutes). One tailed” for “minutes).”, “(Microsoft” for “(one tailed analysis)(Microsoft”, “[…],” for “Redmond,”, “analysis” for “analyse”

CD-1 female mice [2] = test: observation of muscarinic side effects (tremor, sedation, salivation); format: in vivo, mouse; details: at its ED50 dose
Protocol: (§4) Observations of tremor, sedation, and salivation were made by close visual inspection of the mice at 5, 15, 30 and 60 minutes after injection of 4-s-[4-propylsulfanyl)-1,2,5-thiadiazol-3-yl]-1-azatricyclo[3.3.1.1<3,7>]decane hydrochloride. Tremor and sedation were scored as +(indicated visible tremor or sedation) or −(indicated non-visible tremor or sedation). Salivation was scored according to the following scale: 0, no sign of saliva within animal's mouth; 1, evidence of saliva in animal's mouth, but not on animal's muzzle; and 2, evidence of saliva in animal's mouth and on muzzle. No other muscarinic receptor mediated activities were observed.
as §4, with “4-s-[4-(propylsulfanyl)-1,2,5-thiadiazol-3-yl]-1-azatricyclo[3.3.1.1<3,7>]decane” for “4-s-[4-propylsulfanyl)-1,2,5-thiadiazol-3-yl]-1-azatricyclo[3.3.1.1<3,7>]decane”

CCCSc1nsnc1[C@H]1[C@@H]2C[C@@H]3C[C@H]1CN(C3)C2.Cl [4-s-[4-(propylsulfanyl)-1,2,5-thiadiazol-3-yl]-1-azatricyclo[3.3.1.1<3,7>]decane hydrochloride]
antinociception (%MPE) (CD-1 female mice [1]; 0.03 mg/kg sc alone, hydrochloride): 19%
antinociception (%MPE) (CD-1 female mice [1]; 0.05 mg/kg sc alone): 38%
antinociceptive potency relative to morphine (CD-1 female mice [1]; mouse tail-flick test, more potent than morphine): 300-1000 fold
incidence of muscarinic side effects (CD-1 female mice [2]): low incidence

CS(=O)(=O)Nc1ccc([N+](=O)[O-])cc1OC1CCCCC1 [NS-398]
antinociceptive effect (CD-1 female mice [1]; NS-398 0.05 mg/kg ip alone): without antinociceptive effect

CC(=O)Nc1ccc(O)cc1 [acetaminophen]
antinociceptive effect (CD-1 female mice [1]; acetaminophen 60 mg/kg ip alone): without antinociceptive effect

CC(C)Cc1ccc(C(C)C(=O)O)cc1 (stereo not drawn) [ibuprofen]
antinociceptive effect (CD-1 female mice [1]; ibuprofen 50 mg/kg ip alone): without antinociceptive effect

CN1CC[C@]23c4c5ccc(O)c4O[C@H]2[C@@H](O)C=C[C@H]3[C@H]1C5 [morphine]
antinociception (%MPE) (CD-1 female mice [1]; morphine 3 mg/kg sc alone): 13% and 25%
antinociception (%MPE) (CD-1 female mice [1]; morphine 5.0 mg/kg sc alone): 35%

— patent US6828328B1, “Analgesic combination of muscarinic agonists” (UCB s.A., priority 2002, dated 2004)
